These results are taken from PMC12769565, “Design, synthesis and biological activity of glycoconjugated ADAMTS5 exosite inhibitors: applications in osteoarthritis and ovarian cancer models” (Scientific Reports, 2025).

The subject of series [1] is ADAMTS5. The note with it: reported zinc-chelating inhibitors; cited from earlier work.
The subject of series [2] is HEK293. More on the design: method as in ChEMBL. Conditions: ref ChEMBL, cited from earlier work; for EC50: read-out: EC50 (Standard Value).
Series [3] relates to HEK293T cells. Nature of the series: Cell viability MTS assay. In kind it is cell-based, human. The note with it: 100 µM; 72 h; vs DMSO control. Here is the method:
(§1) Cell viability was assessed using CellTiter® 96 Aqueous One Solution Cell Proliferation Assay (Promega, G3582) following the manufacturer’s protocol. The assay is based on the reduction of [3-(4,5-dimethylthiazol-2-yl)-5-(3-carboxymethoxyphenyl)-2-(4-sulfophenyl)-2 H-tetrazolium] (MTS) and phenazine ethosulfate into formazan. Compounds 2 and 4b, GM6001 (Merck, 364206) (10–100 µM), or DMSO control were incubated in 48-well Nunc™ plates (Thermo Fisher Scientific,150687) with HEK293T cells, human non-OA chondrocytes, porcine cartilage explants, or human OA cartilage explants for 72 h. At least 3 independent experiments were carried out with 3 technical replicates each. For experiments involving human samples, independent experiments were carried out on 3 different donors. Absorbance at 490 nm was measured on a SpectraMax i3x Multi-Mode Platform (Molecular Devices). Cell viability was normalized to DMSO controls.

For series [4], the system named is human non-OA chondrocytes. Nature of the series: Cell viability MTS assay. In kind it is cell-based. Conditions: 100 µM; 72 h; vs DMSO control. Here is the method: Non-OA human chondrocytes were isolated from knee cartilage tissues obtained from the Stanmore BioBank, Institute of Orthopaedics, Royal National Orthopaedic Hospital, Stanmore, UK, from 3 donors following informed consent and approval by the Royal Veterinary College Ethics and Welfare Committee (Institutional approval URN 2012 0048 H) as before.
as §1
A general note: Tetrazolium dyes change colour on reduction, which living cells bring about.

Series [5] concerns porcine cartilage explants. Description: Cell viability MTS assay. The class given is cell-based, pig. The note with it: 100 µM; 72 h; vs DMSO control. The protocol: Porcine articular cartilage from the joints of 3–9 month old pigs was supplied by a local abattoir within 2 h of slaughter and dissected into small pieces approximately 3 mm long and 3–4 mm wide. Each piece weighed roughly 10 mg. After dissection, the cartilage was allowed to acclimatize for 24 h at 37 °C under 5% CO2 in Dulbecco’s Modified Eagle Medium (DMEM) containing 100 U/ml penicillin, 100 µg/ml streptomycin, 10% fetal bovine serum (FBS).
as §1

The target of series [6] is T1, ADAMTS4 (Homo sapiens, UniProt O75173).
T1 construct: Human recombinant full-length FLAG-tagged ADAMTS4 and ADAMTS5 were expressed in HEK293T cells; FLAG; made in house; host or cells: HEK293T cells
T1 sequence (O75173 213-837): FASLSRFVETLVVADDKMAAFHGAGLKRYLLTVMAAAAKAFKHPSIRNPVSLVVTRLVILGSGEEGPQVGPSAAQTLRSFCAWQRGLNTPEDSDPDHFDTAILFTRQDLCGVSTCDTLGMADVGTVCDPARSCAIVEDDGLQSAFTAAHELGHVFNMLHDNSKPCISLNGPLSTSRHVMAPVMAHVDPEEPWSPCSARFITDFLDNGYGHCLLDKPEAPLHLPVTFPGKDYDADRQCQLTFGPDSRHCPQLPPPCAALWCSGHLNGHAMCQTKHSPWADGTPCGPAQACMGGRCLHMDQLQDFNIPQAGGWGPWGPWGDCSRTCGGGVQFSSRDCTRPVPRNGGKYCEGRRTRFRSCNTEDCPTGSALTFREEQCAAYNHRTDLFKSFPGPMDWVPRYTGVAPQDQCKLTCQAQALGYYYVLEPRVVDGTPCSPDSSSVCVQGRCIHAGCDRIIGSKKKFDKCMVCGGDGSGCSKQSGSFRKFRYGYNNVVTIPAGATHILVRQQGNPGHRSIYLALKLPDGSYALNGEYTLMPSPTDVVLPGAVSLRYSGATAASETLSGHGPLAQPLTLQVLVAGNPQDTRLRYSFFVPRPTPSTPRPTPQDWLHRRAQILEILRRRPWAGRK
Description: QF peptide cleavage assay (peptidolytic activity). The class given is biochemical. The note with it: compared to DMSO control. Here is the method:
(§2) Human recombinant full-length FLAG-tagged ADAMTS4 and ADAMTS5 were expressed in HEK293T cells (Thermo Fisher Scientific) and purified by anti-FLAG immunoaffinity chromatography as before. Concentrations of active proteases were determined by active-site titrations with known concentrations of TIMP-3 (Bio-Techne, 973-TM-010), using QF peptides as substrates. V1-5GAG, a truncated version of versican V1 isoform comprising residues 21–694 and containing a C-terminal 6x His tag[67], was expressed in HE293T cells and purified by immobilized metal affinity chromatography as before.
QF peptide cleavage assays were conducted in TNC-B (50 mM Tris–HCl, pH 7.5, 150 mM NaCl, 10 mM CaCl2, and 0.02% NaN3) on a SpectraMax i3x Multi-Mode Platform (Molecular Devices, UK) in a total volume of 20 µl at 37℃ as before. ADAMTS4 (3.5 nM) or ADAMTS5 (4 nM) were incubated with compounds 1–4 (100 µM, diluted in TNC-B from 10 mM DMSO stocks) or DMSO for 1 h at 37 ℃ before addition of QF peptides fluorescein-5(6)-carbonyl-[…]N, N,N0,N0-tetramethyl-6-carboxyrhodamine, and fluorescein-5(6)-carbonyl-Thr-Glu-Ser-Glu - […]N, N,N0,N0-tetramethyl-6-carboxyrhodamine, respectively, each at 40 µM. Fluorescence intensity was recorded with an excitation wavelength of 485 nm and an emission wavelength of 535 nm every min for 2 h, expressed as relative fluorescence units and normalized against a blank containing only buffer and substrate. Fluorescence values were converted into residual activity by fixing as 100% the activity of the reactions containing an equal concentration (v/v) of DMSO instead of compound (DMSO control).

Series [7] addresses T1, ADAMTS4. Nature of the series: Versicanase assay (V1-5GAG, versikine sandwich ELISA). The class given is biochemical. The note with it: compared to DMSO control. The protocol: as §2
Compounds 1–4 (100 µM) or DMSO were incubated with ADAMTS4 (5 nM) or ADAMTS5 (0.4 nM) for 2 h at 37 °C, before addition of V1-5GAG (50 nM). At each time point, reactions were stopped by addition of ethylenediaminetetraacetic acid and ADAMTS-generated versican fragments (versikine) quantified by sandwich ELISA as before[29],[30],[38] using anti-DPEAAE neoepitope antibody (Life Technologies, PA1-1748 A, 5 µg/ml) and polyclonal anti-versican antibody (Abcam, ab171887, 3 µg/ml). For each reaction, the amount of versikine generated was derived from a standard curve (0–1.56 nM) of V1-5GAG completely digested with ADAMTS5. Initial velocities were calculated from the concentration of versikine generated as a function of reaction time. Percent of inhibition was calculated from the DMSO control reactions. IC50 values were determined using the formula: vi/v0 = 1/(1 + [I]/IC50) where vi is the initial velocity of substrate cleavage in the presence of the inhibitor at concentration [I] and v0 is the initial velocity in the presence of an equal concentration (v/v) of DMSO.
A general note: ELISA stands for enzyme-linked immunosorbent assay.

Turning to `CC1C(NS(=O)(=O)N2CCc3c(nc4cc(F)ccn34)C2)(C(=O)O)C1(C)c1ccccc1` (centres unmarked) [A], the IC50 in series [1] is 0.0084 µM. As for `C[C@H]1CN(C(=O)CC[C@@]2(C3CC3)NC(=O)NC2=O)CCN1c1cc(F)cc(F)c1` [B, GLPG 1972], in series [1], the IC50 is 0.019 µM. As for `COc1cc(/C=C/C(=O)CC(=O)/C=C/c2ccc(O)c(O)c2)ccc1O` [CHEMBL103410], the EC50 in series [2] was 36 µM. For `O=C(/C=C/c1ccccc1)c1ccc(O)cc1O` [CHEMBL105310], the IC50 in series [2] (read-out: IC50 (Standard Value)) is 109 µM. As for `O=C(/C=C/c1ccc(O)cc1)CC(=O)/C=C/c1ccc(O)cc1` [CHEMBL105350], the EC50 in series [2] is 200 µM. On to `C=CCCNc1nc(NCc2csc(-c3cccs3)n2)nc(N2CCC[C@@H]2CNS(=O)(=O)c2ccc(CCC)cc2)n1` [C], for which, in series [1], the IC50 was 0.03 µM. As for `CNC(=O)[C@H](Cc1c[nH]c2ccccc12)NC(=O)[C@@H](CC(=O)NO)CC(C)C` [GM6001, reference compound], the “inhibition of cell viability” value is “Neither 2, nor the broad-spectrum zinc-chelating metalloproteinase inhibitor GM6001[40] had an effect on cell viability” in series [3] and “No significant effect” in series [4]. The “decrease of cell viability” value in series [5] is “did not exhibit cytotoxicity”. `CCC(C)N(Cc1cn(CCCCCCO[C@@H]2O[C@H](CO)[C@@H](O)[C@H](O)[C@H]2NC(C)=O)nn1)S(=O)(=O)c1ccc(-c2ccccc2)cc1` (stereo partly drawn) [compound 1, N-((2R,3R,4R,5 S,6R)-2-((6-(4-((N-(sec-butyl)-[1,1’-biphenyl]-4-sulfonamido)methyl)-1H-1,2,3-triazol-1-yl)hexyl)oxy)-4,5-dihydroxy-6-(hydroxymethyl)tetrahydro-2 H-pyran-3-yl)acetamide] returned an inhibition at 100 µM in series [6] of 42%. In the case of `CCC(C)N(Cc1cn(CCCO[C@@H]2O[C@H](CO[C@@H]3O[C@H](CO)[C@@H](O[C@@H]4O[C@H](CO)[C@H](O)[C@H](O)[C@H]4O)[C@H](O)[C@H]3O)[C@@H](O)[C@H](O)[C@H]2NC(C)=O)nn1)S(=O)(=O)c1ccc(-c2ccccc2)cc1` (stereo partly drawn) [compound 4, N-((2R,3R,4R,5 S,6R)-2-(3-(4-((N-(sec-butyl)-[1,1’-biphenyl]-4-sulfonamido)methyl)-1 H-1,2,3-triazol-1-yl)propoxy)-6-((((2R,3R,4R,5 S,6R)-3,4-dihydroxy-6-(hydroxymethyl)-5-(((2 S,3R,4 S,5R,6R)-3,4,5-trihydroxy-6-(hydroxymethyl)tetrahydro-2 H-pyran-2-yl)oxy)tetrahydro-2 H-pyran-2-yl)oxy)methyl)-4,5-dihydroxytetrahydro-2 H-pyran-3-yl)acetamide], the inhibition at 100 µM in series [7] is 64%.

In general, IC50 refers to the concentration that gives 50% inhibition. One may read the EC50 as the midpoint of the concentration-response curve. As usually defined, the inhibition is the percentage by which the read-out fell short of the control. A higher inhibition goes with strong suppression.
